Source: article PMC12598616, “Design and optimization of caspase-1-responsive fluorescent probes for pyroptosis imaging and anti-pyroptosis drug screening” (Chemical Science, 2025)

System: activated Cas-1 in primary peritoneal macrophages
Assay: High-content screening / fluorescence imaging for caspase-1 modulators in primary peritoneal macrophages
Type: cell-based, mouse
Details: LPS then Nig 10 μM 2 h; FPy1 5 μM
Excerpt: The efficient and rapid discovery of Cas-1 modulators is of significant importance considering the therapeutic potential of Cas-1 in various diseases.[39,40] Therefore, we employed FPy1 to construct a high-content screening system aimed at identifying Cas-1 modulators. The level of activated Cas-1 in cells is influenced by multiple factors. To reduce the impact of factors that affect Cas-1 activation in cells, we utilized the NLRP3 inflammasome-mediated Cas-1 activation model, administering the drug during the second stage where the zymogen was converted into activated Cas-1. MCC950, a selective NLRP3 inflammasome inhibitor that could suppress Cas-1 activation, was selected as the positive drug.[41] […] To validate the efficacy of the Cas-1 modulator screening system (Fig. 6a), we first observed the fluorescence images of PMs stained with FPy1 (5 μM) in the control group, model group, and positive drug group. […] Subsequently, the impact of 25 natural products (10 μM) on activated Cas-1 were studied using high-content analysis (Fig. S20). […] To determine whether deoxyshikonin directly binds to Cas-1 and inhibits its activity, we conducted fluorescence detection following co-incubation of deoxyshikonin, FPy1 and Cas-1. […]
Harvested rat discs were fixed in 4 % buffered paraformaldehyde for 24 hours, decalcified in 10 % ethylenediaminetetraacetic acid (EDTA, Solarbio, E8030) solution for 1 month, embedded in paraffin, and sectioned at a thickness of 5 μm. […] Stained sections were evaluated by three independent raters, blinded to the research protocol, and measurements were averaged for statistical analysis. […]
In vivo fluorescence imaging of intervertebral disc degeneration
Twelve rats were modeled with needle puncture-induced intervertebral disc degeneration at the Co5/6, Co6/7 and Co 7/8 levels. […] In vivo fluorescence images were acquired using an in vivo Imaging System (PerkinElmer). […]
In vivo fluorescence imaging of osteoarthritis […]

–FLTDG– [FPy1, RhoB donor, hNR quencher]
fluorescence of FPy1-stained macrophages, model vs control group: significant fluorescence enhancement compared to the control group
